The results in this text go back to US8410155B2, “Arylpropionamide, arylacrylamide, arylpropynamide, or arylmethylurea analogs as factor XIA inhibitors” (Bristol-Myers Squibb Company, priority 2006, dated 2013).

Structures can show the parent of a compound that is named as a salt.

In this assay the target is T1, purified human Factor XIa (Homo sapiens, UniProt P03951).
T1 construct: purchased Haematologic Technologies
T1 sequence (P03951 388-625 limits assumed): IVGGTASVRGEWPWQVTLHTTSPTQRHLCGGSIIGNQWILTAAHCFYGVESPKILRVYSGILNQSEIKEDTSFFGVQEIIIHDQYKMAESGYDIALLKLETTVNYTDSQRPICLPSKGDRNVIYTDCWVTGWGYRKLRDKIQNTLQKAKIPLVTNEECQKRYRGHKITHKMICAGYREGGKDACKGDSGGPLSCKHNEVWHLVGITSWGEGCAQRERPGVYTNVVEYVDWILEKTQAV
T1 sequence (P03951 19-387 partner limits assumed): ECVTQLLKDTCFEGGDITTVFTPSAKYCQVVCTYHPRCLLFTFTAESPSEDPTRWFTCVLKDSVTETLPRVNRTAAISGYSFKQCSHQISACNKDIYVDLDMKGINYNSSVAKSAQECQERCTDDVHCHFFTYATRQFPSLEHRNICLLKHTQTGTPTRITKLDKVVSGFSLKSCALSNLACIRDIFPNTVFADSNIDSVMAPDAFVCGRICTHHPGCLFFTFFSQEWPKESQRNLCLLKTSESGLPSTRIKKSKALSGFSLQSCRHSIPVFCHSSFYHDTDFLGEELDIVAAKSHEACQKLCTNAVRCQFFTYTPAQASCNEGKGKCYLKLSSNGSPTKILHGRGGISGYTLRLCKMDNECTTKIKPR
Description: Factor XIa enzyme inhibition assay (chromogenic substrate S-2366). The format is biochemical. The settings on record: substrate S-2366, 50 mM HEPES pH 7.4. How it is done:
The effectiveness of compounds of the present invention as inhibitors of the coagulation factors XIa, VIIa, IXa, Xa, XIIa, plasma kallikrein or thrombin, can be determined using a relevant purified serine protease, respectively, and an appropriate synthetic substrate. The rate of hydrolysis of the chromogenic or fluorogenic substrate by the relevant serine protease was measured both in the absence and presence of compounds of the present invention. […] A decrease in the rate of absorbance or fluorescence change in the presence of inhibitor is indicative of enzyme inhibition. Such methods are known to one skilled in the art. The results of this assay are expressed as the inhibitory constant, Ki.
Values of Ki were determined by allowing the protease to react with the substrate in the presence of the inhibitor. Reactions were allowed to go for periods of 20-180 minutes (depending on the protease) and the velocities (rate of absorbance or fluorescence change versus time) were measured. The following relationships were used to calculate Ki values: (vo−vs)/vs=I/(Ki(1+S/Km)) for a competitive inhibitor with one binding site; or vs/vo=A+((B−A)/1+((IC50/(I)^n))) and Ki=IC50/(1+S/Km) for a competitive inhibitor
For the compound `COC(=O)Nc1ccc(-c2cncc(CNC(=O)CCc3cc(Cl)ccc3-n3cnnn3)c2)cc1` [Example 6, [4-(5-{[3-(5-Chloro-2-tetrazol-1-yl-phenyl)-propionylamino]-methyl}-pyridin-3-yl)-phenyl]-carbamic acid methyl ester, trifluoroacetic acid salt], the Ki (usually a dissociation constant, usually derived from enzyme kinetics or from competition with a known ligand) was 1250 nM.

In turn, `COC(=O)Nc1ccc(-c2nc(CN(Cc3ccccc3)C(=O)/C=C/c3cc(Cl)ccc3-n3cnnn3)[nH]c2Cl)cc1` [Example 10, {4-[2-({Benzyl-[(E)-3-(5-chloro-2-tetrazol-1-yl-phenyl)-acryloyl]-amino}-methyl)-5-chloro-1H-imidazol-4-yl]-phenyl}-carbamic acid methyl ester, trifluoroacetic acid salt] registered a Ki of 1510 nM.

`COC(=O)Nc1ccc(-c2cncc(CNC(=O)/C=C/c3cc(Cl)ccc3-n3cnnn3)c2)cc1` [Example 5, [4-(5-{[(E)-3-(5-Chloro-2-tetrazol-1-yl-phenyl)-acryloylamino]-methyl}-pyridin-3-yl)-phenyl]-carbamic acid methyl ester, trifluoroacetic acid salt] had a Ki of 283 nM.

`COC(=O)Nc1ccc(-c2c[nH]c(=O)c(CNC(=O)/C=C/c3cc(Cl)ccc3-n3cnnn3)c2)cc1` [Example 8, [4-(5-{[(E)-3-(5-Chloro-2-tetrazol-1-yl-phenyl)-acryloylamino]-methyl}-6-oxo-1,6-dihydro-pyridin-3-yl)-phenyl]-carbamic acid methyl ester] yielded an inhibition constant Ki of 277 nM.

`O=C(/C=C/c1cc(Cl)ccc1-n1cnnn1)NCc1nc(-c2ccc3c(c2)CCC(=O)N3)c(Cl)[nH]1` [Example 3, (E)-N-[5-Chloro-4-(2-oxo-1,2,3,4-tetrahydro-quinolin-6-yl)-1H-imidazol-2-ylmethyl]-3-(5-chloro-2-tetrazol-1-yl-phenyl)-acrylamide, trifluoroacetic acid salt] gave an inhibition constant (Ki) of 12.1 nM.

As to `COC(=O)Nc1ccc(-c2nc(CNC(=O)CCc3cc(Cl)ccc3-n3cnnn3)[nH]c2Cl)cc1` [Example 2, [4-(5-Chloro-2-{[3-(5-chloro-2-tetrazol-1-yl-phenyl)-propionylamino]-methyl}-1H-imidazol-4-yl)-phenyl]-carbamic acid methyl ester, trifluoroacetic acid salt], affinity was put at a Ki of 16.8 nM. The Ki values of the last two compounds are within 1.5-fold of each other.

Compound `COC(=O)Nc1ccc(-c2ccnc(CNC(=O)/C=C/c3cc(Cl)ccc3-n3cnnn3)c2)cc1` [Example 7, [4-(2-{[(E)-3-(5-Chloro-2-tetrazol-1-yl-phenyl)-acryloylamino]-methyl}-pyridin-4-yl)-phenyl]-carbamic acid methyl ester, trifluoroacetic acid salt] gave a Ki of 475 nM. Compared with the last compound, the Ki is about 28-fold higher.

In turn, `COC(=O)Nc1ccc(-c2[nH]c(CNC(=O)/C=C/c3cc(Cl)ccc3-n3cnnn3)nc2Cl)cc1` [Example 1, [4-(5-chloro-2-{[(E)-3-(5-chloro-2-tetrazol-1-yl-phenyl)-acryloylamino]-methyl}-1H-imidazol-4-yl)-phenyl]-carbamic acid methyl ester, trifluoroacetic acid salt] displayed an inhibition constant (Ki) of 27.3 nM.
